Test results: patent US11207299B2, “Biphenyl sulfonamide compounds for the treatment of type IV collagen diseases” (Travere Therapeutics, Inc., priority 2018, dated 2021)
“Also recorded” adds a separate entry of the source.

Tests used:
Assay type in all cases: in vivo, mouse
[1] = system: autosomal Alport mice (COL4A3^−/−); test: Lifespan study in Alport mice
Source text: (§1) Vehicle or sparsentan was given daily by oral gavage to autosomal Alport mice (COL4A3^−/−) on the 129/Sv background (male and female) in five separate studies: a pilot study, an early intervention study (treated from 3-7 weeks of age), a late intervention study (treated from 5-7 weeks of age after the onset of glomerular (GM) changes), a lifespan study, and a hearing study (FIG. 1). The early intervention, late intervention, lifespan, and hearing studies also included mice treated with a comparator, losartan, which was given orally at 3-4 weeks of age in the early intervention study, in drinking water at 4-7 weeks of age in the early intervention study, and in drinking water at 5-7 weeks in the late intervention study.
In the lifespan study, Alport mice (n=10) were dosed using the same methodology as in the early intervention study, except that dosing was continued until mice had lost 10% of their peak body weight, after which they were euthanized.
For the pilot, early intervention, late intervention, and lifespan studies, spot urine was sampled pre-study and weekly during treatment and analyzed for protein (UP) and creatinine (C) to determine proteinuria (UP/C). At the end of each study the animals were euthanized, blood samples were taken, BUN was measured from serum, and kidneys were harvested for structural and immuno-fluorescent measurements. Glomerulosclerosis was assessed by immunofluorescence (IF) using an antibody to fibronectin (FN). Visual counting of the number of sclerotic glomeruli as a proportion of the total number of glomeruli per slide was used to calculate the percentage of sclerotic glomeruli. Sections were co-stained with an anti-CD45 antibody to indicate leucocyte infiltration. Tubulointerstitial fibrosis was determined by IF of kidney sections using an antibody to collagen 1 (COL1). Tubulointerstitial fibrosis (TIF) scoring was conducted by visual assessment of the COL1 positive area as a percentage of the total cortical area and was performed blinded. […]

[2] = system: autosomal Alport mice (COL4A3^−/−); test: Early intervention study in Alport mice (treated from 3-7 weeks of age)
Source text: as §1
(§2) Efficacy renal endpoints included blood urea nitrogen (BUN), proteinuria (urine protein to creatinine ratio, or UP/C), glomerulosclerosis, tubulointerstitial fibrosis, leucocyte infiltration, and glomerular basement morphology (GBM) using transmission electron microscopy (TEM). Endpoints in the inner ear included auditory brain stem response (ABR) threshold as a measure of noise-induced hearing loss, strial capillary basement membrane thickness, and inner ear pathology by TEM.
In the early intervention study, wild-type and Alport mice were dosed daily by oral gavage with vehicle or sparsentan at 120 mg/kg from 3 to 7 weeks of age (7-8 mice per group), or with losartan at 20 mg/kg by oral gavage from 3-4 weeks of age (during weaning) and 10 mg/kg in drinking water from 4-7 weeks of age.
(§3) For the pilot, early intervention, late intervention, and lifespan studies, spot urine was sampled pre-study and weekly during treatment and analyzed for protein (UP) and creatinine (C) to determine proteinuria (UP/C). At the end of each study the animals were euthanized, blood samples were taken, BUN was measured from serum, and kidneys were harvested for structural and immuno-fluorescent measurements. Glomerulosclerosis was assessed by immunofluorescence (IF) using an antibody to fibronectin (FN). Visual counting of the number of sclerotic glomeruli as a proportion of the total number of glomeruli per slide was used to calculate the percentage of sclerotic glomeruli. Sections were co-stained with an anti-CD45 antibody to indicate leucocyte infiltration. Tubulointerstitial fibrosis was determined by IF of kidney sections using an antibody to collagen 1 (COL1). Tubulointerstitial fibrosis (TIF) scoring was conducted by visual assessment of the COL1 positive area as a percentage of the total cortical area and was performed blinded. The fibrosis scoring (“Fibrosis Score”) was categorized according to visual judgment of percentage of total cortical area, as: 0=<5%, 1=5-10%, 2=10-25%, 3=25-50%, 4=50-75%, or 5=75-100%. Ultrastructural changes in GBM and podocyte morphology were observed using transmission electron microscopy (TEM).

[3] = system: autosomal Alport mice (COL4A3^−/−); test: Pilot study: dose-dependent effects of sparsentan in Alport mice treated from 3-7 weeks of age; details: for SBP / UP/C / DBP / Sclerotic Glomeruli (%) / BUN / Fibrosis Score: mean ± SD; for Sclerotic Glomeruli (%): fibronectin staining; for Fibrosis Score: at 7 wk, COL1-positive cortical area scored 0=<5% to 5=75-100%
Source text: as §1, §2
(§4) In the pilot study, designed to determine an optimal efficacious dose of sparsentan, Alport mice (3-4 per group) were dosed with vehicle (0.5% methylcellulose 4000 cps/0.25% Tween® 80 in distilled water) or sparsentan at 60 mg/kg or 200 mg/kg from 3 to 7 weeks of age for 28 days. Although 200 mg/kg sparsentan was efficacious in the pilot study, BUN levels were higher than those of Alport mice dosed with 60 mg/kg sparsentan (Table 1; FIG. 2A; FIG. 2B). This observation led to the selection of a 120 mg/kg dose of sparsentan to take forward into the early intervention study. During the pilot study, blood pressure (BP) was measured weekly using the CODA2 tail cuff system. Stria from this pilot study were also examined by immunofluorescence using antibodies to laminin α2
as §3

[4] = system: laminin α2 in stria of Alport mice; test: Immunofluorescence of laminin α2 in stria of Alport mice; details: Alport mice, sparsentan 200 mg/kg from 3-7 weeks of age (pilot study)
Method: as §4, with “Stria from this pilot study were also examined by immunofluorescence using antibodies to laminin α2” left out
For the hearing study, wild-type or Alport mice were treated according to daily from 3-8.5 weeks of age by oral gavage with vehicle (0.5% methylcellulose 4000 cps/0.25% Tween® 80 in distilled water) or 120 mg/kg sparsentan or losartan at 20 mg/kg by oral gavage from 3-4 weeks of age (during weaning) and 10 mg/kg in drinking water from 4-7 weeks of age (n=5). The progression of Alport disease was assessed at 7 weeks of age by the amount of proteinuria (via urinalysis reagent strips—data not shown). […] Hearing ability and sensitivity to noise were assessed between 7 and 8 weeks of age by Auditory Brainstem Response (ABR), pre-noise exposure. […]

[5] = Alport mice, sparsentan 120 mg/kg, at 7 wk of age, mean ± SD
[6] = Alport mice, sparsentan 60 mg/kg, at 5 wk of age
[7] = Alport mice, sparsentan 60 mg/kg, at 6 wk of age
[8] = Alport mice, sparsentan 60 mg/kg, at 7 wk of age
[9] = Alport mice, sparsentan 200 mg/kg, at 5 wk of age
[10] = Alport mice, sparsentan 200 mg/kg, at 6 wk of age
[11] = Alport mice, sparsentan 200 mg/kg, at 7 wk of age

CCCCC1=NC2(CCCC2)C(=O)N1Cc1ccc(-c2ccccc2S(=O)(=O)Nc2noc(C)c2C)c(COCC)c1 [sparsentan]
Lifespan compared to vehicle-treated Alport mice ([1]; dosing as in early intervention study, continued until 10% loss of peak body weight, P<0.05): significantly longer; also recorded: significantly greater | Median lifespan ([1]; sparsentan compared with losartan): the same as losartan | GBM damage and podocyte effacement (TEM) ([2]; Alport mice, sparsentan 120 mg/kg, early intervention): prevented changes in GBM ultrastructural morphology; also recorded: amelioration | UP/C ([2]; Alport mice, sparsentan 120 mg/kg oral daily from 3 wk, at 4 wk of age, mean ± SD, n = 8): 3.8 ± 1.3 mg/mg | UP/C ([2]; Alport mice, sparsentan 120 mg/kg, at 5 wk of age, mean ± SD): 10.4 ± 2.8 mg/mg | UP/C ([2]; Alport mice, sparsentan 120 mg/kg, at 6 wk of age, mean ± SD): 13.6 ± 3.7 mg/mg | BUN [2, 5]: 17.5 ± 3.3 mg/dL | Sclerotic Glomeruli (%) [2, 5]: 0.8 ± 1.7 % | UP/C [2, 5]: 14.0 ± 3.3 mg/mg | Fibrosis Score ([2]; Alport mice, sparsentan 120 mg/kg, at 7 wk, score 0=<5% to 5=75-100% COL1 area, mean ± SD): 0.0 ± 0.0 | Development of nephropathy in Alport mice ([2]; sparsentan 120 mg/kg 28 days or losartan 20 mg/kg 7 days then 10 mg/kg 21 days, from 3 weeks of age): prevented | UP/C, BUN, glomerulosclerosis, and fibrosis vs. vehicle-treated Alport mice ([2]; sparsentan 120 mg/kg or losartan 20/10 mg/kg from 3 weeks of age, P<0.05): significant attenuation | TIF or glomerulosclerosis ([2]; sparsentan- or losartan-treated Alport mice, early intervention): little to no | BUN levels after 200 mg/kg compared to 60 mg/kg sparsentan ([3]; Alport mice, 7 weeks of age, 4 weeks of dosing): elevated | SBP ([3]; Alport mice, sparsentan 60 mg/kg oral daily from 3 wk, at 5 wk of age, n = 4): 114.0 ± 13.0 mmHg | UP/C ([3]; Alport mice, sparsentan 60 mg/kg, at 4 wk of age): 3.4 ± 2.6 mg/mg | DBP [3, 6]: 71.1 ± 10.7 mm/Hg | UP/C [3, 6]: 8.6 ± 2.4 mg/mg | DBP [3, 7]: 72.9 ± 9.6 mm/Hg | SBP [3, 7]: 106.2 ± 6.9 mmHg | UP/C [3, 7]: 1.5 ± 1.5 mg/mg | Sclerotic Glomeruli (%) [3, 8]: 3.5±1.6% | BUN [3, 8]: 17.1 ± 1.5 mg/dL | DBP [3, 8]: 78.1 ± 14.7 mm/Hg | SBP [3, 8]: 117.6 ± 4.6 mmHg | UP/C [3, 8]: 5.6 ± 3.0 mg/mg | Fibrosis Score ([3]; Alport mice, sparsentan 60 mg/kg): 0.0 ± 0.0 | SBP ([3]; Alport mice, sparsentan 200 mg/kg oral daily from 3 wk, at 5 wk of age, n = 3): 110.6 ± 21.8 mmHg | UP/C ([3]; Alport mice, sparsentan 200 mg/kg, at 4 wk of age): 2.1 ± 3.7 mg/mg | DBP [3, 9]: 99.7 ± 7.7 mm/Hg | UP/C [3, 9]: 3.9 ± 3.5 mg/mg | DBP [3, 10]: 74.6 ± 21.4 mm/Hg | SBP [3, 10]: 108.7 ± 26.4 mmHg | UP/C [3, 10]: 1.5 ± 2.7 mg/mg | Sclerotic Glomeruli (%) [3, 11]: 1.4±1.3% | BUN [3, 11]: 25.9 ± 7.7 mg/dL | DBP [3, 11]: 91.7 ± 20.0 mm/Hg | SBP [3, 11]: 122 ± 20.9 mmHg | UP/C [3, 11]: 0.8 ± 1.4 mg/mg | Fibrosis Score ([3]; Alport mice, sparsentan 200 mg/kg): 0.0 ± 0.0 | Prevention of UP/C, glomerulosclerosis, and fibrosis compared to vehicle-treated mice ([3]; sparsentan 60 and 200 mg/kg, 3-7 weeks of age): prevented an increase in glomerulosclerosis in a dose-dependent manner; also recorded: dose-dependent prevention | Systolic and diastolic blood pressure compared to vehicle-treated Alport mice ([3]; sparsentan 60 or 200 mg/kg, 6 weeks of age (3 weeks of dosing)): significantly lower | COL1 immunoreactivity ([3]; sparsentan-treated Alport mice, pilot study, kidney sections): absent | BP compared to vehicle-treated Alport mice ([3]; sparsentan, end of pilot study (7 weeks of age; 4 weeks of dosing)): no difference | Accumulation of laminin α2 in stria [4]: prevented
